Measurements as given in patent publication US9062051B2, “Compounds and pharmaceutical compositions thereof for the treatment of proliferative disorders” (GALAPAGOS NV, priority 2014, dated 2015).
“Also recorded” adds a separate entry of the source.

Assays:
[1] = Pharmacokinetics in mice (exposure, AUC); type: in vivo; details: male, CD1, plasma, mouse, po
Description: This study was performed with 42 naïve male CD1 mice (18-20 g, 4-5 weeks old). Mice are obtained from Janvier, Le Genest St Isle, France.
A controlled environment was maintained in the room with optimal conditions of approximately 15 air changes per hour, a temperature of 22±2 C, a relative humidity of 30-70% and a 12 hour light/12 hour dark cycle (nightlight during the night period).
Pelleted diet for rodents (UAR A04C-10) was used and was provided ad libitum. Before p.o. dosing, the animals are deprived of food for at least 12 hours before compound administration and 4 hours after administration. All animals had free access to tap water.
[…] The i.v. bolus administration is given with a dose volume of 5 mL/kg and the oral administration is given with a dose volume of 10 mL/kg. Actual dose volumes are based on the mean of 10 body weights.
The vehicle used to formulate compounds for oral administration is methylcellulose in water (0.5% in water)
From all animals approximately 500 μL blood samples are collected by intra-cardiac puncture under gaseous anesthesia and placed into tubes containing Li-heparin as anticoagulant. Blood samples are collected at various time points (i.v.: 0.05, 0.25, 0.5, 1, 3, 5 and 8 hours after dosing; p.o.: 0.25, 0.5, 1, 3, 5, 8 and 24 hours after dosing). Each mouse is sampled once and euthanized.
Blood is kept on ice. Within 1 hour after sampling, blood is centrifuged at 5,000 rpm for 10 min at 4° C. Immediately after centrifugation, the resulting plasma samples are collected into polypropylene tubes and are kept frozen at −20° C. pending bioanalysis.
Plasma samples are assayed by LC-MS/MS. Plasma proteins are precipitated with an excess of methanol containing the internal standard and the corresponding supernatant is injected on a C18 column. Analytes are eluted out the HPLC system by increasing the percentage of the organic mobile phase. An API4000 mass spectrometer (AB Sciex™) is used for the detection and quantification.
Pharmacokinetic parameters are calculated by non-compartmental analysis using WinNonlin® software (Pharsight, version 5.2).

[2] = Plasma exposure at day 7 in the MDA-MB-231 xenograft experiment; type: in vivo, Female BALB/c Mice; details: for AUC: female, BALB/c, mouse, plasma, po
Description: 5 million MDA-MB-231 cells/mice in 0.1 mL of 50% Matrigel (BD biosciences, LDEV free 256235)+50% D-PBS 1× (Gibco 14190-086) are injected by subcutaneous route on the upper back of 120 mice. Prior to implantation, mice are anesthetized by intra-peritoneal injection with a 0.1 mL/10 g dose of anaesthetic solution (18 mL NaCl, 0.9%+0.5 mL xylazine, +1.5 mL ketamine. After implantation, tumours are regularly measured with a calliper, and mice with a mean tumour volume of about 200 mm^3 are randomized into groups of 10 individuals, and each group is dosed either with vehicle (p.o.), paclitaxel as control (3×/week, 20 mg/kg i.p.), or a test compound at doses of 3, 10, 30 or 100 mg/kg (p.o., QD, in 10 mL/kg administration volume)
Even at a 10 fold higher dosing (300 mg/kg, p.o.), Comparative Compound A remains 3.9 fold less exposed than Compound 55.

[3] = system: MDA-MB-231 cells; test: Mouse xenograft model of human triple negative breast cancer (MDA-MB-231), tumorous growth inhibition; type: in vivo, Female BALB/c Mice; details: for RTV (Relative Tumor Volume) / T/C (Tumour Vs Control) / TGI (Tumor Growth Inhibition): p.o., qd
Description: Animals (Female BALB/c Mice, Harlan, 51930, 18-20 g) are provided with filtered tap water and standard chow ad libitum and maintained at 22±2° C. in 55±10% humidity on a 12 h light/dark cycle.
Paclitaxel used as a positive control is formulated by 1/3 dilution of commercial solution (Fresenius kabi, 871WF014/4) in saline.
The test compounds for po administration are formulated in 0.5% methylcellulose (VWR, ref AX021233).
MDA-MB-231 cell line is obtained from the ATCC collection (ref HTB-26). The cells are then cultured in RPMI 1640 medium supplemented with […] (Gibco 15140-148) and 1% (v/v) L-Glutamine 200 mM (Gibco 25030-024) at 37° C. in a 5% CO2 incubator.
5 million MDA-MB-231 cells/mice in 0.1 mL of 50% Matrigel (BD biosciences, LDEV free 256235)+50% D-PBS 1× (Gibco 14190-086) are injected by subcutaneous route on the upper back of 120 mice. Prior to implantation, mice are anesthetized by intra-peritoneal injection with a 0.1 mL/10 g dose of anaesthetic solution (18 mL NaCl, 0.9%+0.5 mL xylazine, +1.5 mL ketamine. […]
Body weight, and tumor growth is recorded twice a week during the course of treatment.
After 26 days the treatment is stopped, in each group half of the mice are euthanized for tissue collection, and the other half is kept for a further 7 days, during which period body weight and tumour sized are measured.
In sacrificed mice, blood and tumours are collected, analysed, and the effect of the test compounds is compared with controls (vehicle and paclitaxel).
The values were obtained using the following calculations
Relative Tumor Volume (RTV):
Tumor Growth Inhibition (TGI) TGI=1−T/C

| AUC ([1]; 5 mg/kg) [ng·h/mL] | AUC ([1]; 30 mg/kg) [ng·h/mL] | exposure compared with comparative Compound A ([2]; even if Compound A is administered at a 10 fold higher dose) | AUC ([2]; day 7, 30 mg/kg p.o.) [ng·h/mL] | fold higher exposure than the comparison compound A ([2]; plasma exposure at day 7, both at 30 mg/kg p.o.) [fold] | AUC ([2]; day 7, 100 mg/kg p.o.) [ng·h/mL] | AUC ([2]; day 7, 300 mg/kg p.o.) [ng·h/mL] | fold less exposed than Compound 55 ([2]; plasma exposure at day 7, Compound A at 300 mg/kg p.o. (10 fold higher dosing)) [fold] | Structure (SMILES) | tumour growth ([3]; 30 mg/kg p.o., QD, 26 days treatment, MDA-MB-231 xenograft) | RTV (Relative Tumor Volume) ([3]; day 26, 30 mg/kg) | T/C (Tumour Vs Control) ([3]; day 26, 30 mg/kg) [%] | TGI (Tumor Growth Inhibition) ([3]; day 26, 30 mg/kg) [%] | RTV (Relative Tumor Volume) ([3]; day 26, 100 mg/kg) | T/C (Tumour Vs Control) ([3]; day 26, 100 mg/kg) [%] | TGI (Tumor Growth Inhibition) ([3]; day 26, 100 mg/kg) [%] | RTV (Relative Tumor Volume) ([3]; day 26, 300 mg/kg) | T/C (Tumour Vs Control) ([3]; day 26, 300 mg/kg) [%] | TGI (Tumor Growth Inhibition) ([3]; day 26, 300 mg/kg) [%] | anti-tumour effect ([3]; dosed at 30, 100 or 300 mg/kg, 26 days treatment, MDA-MB-231 xenograft) |
| --- | --- | --- | --- | --- | --- | --- | --- | --- | --- | --- | --- | --- | --- | --- | --- | --- | --- | --- | --- |
| 851 | 31600 | higher | 31000 | > 24 |  |  |  | Cc1ccc(NC(=O)c2cccc(C(F)(F)F)c2)cc1-c1ccc2c([C@H](C)O)n[nH]c2n1 [Compound 55, N-{3-[3-((S)-1-Hydroxy-ethyl)-1H-pyrazolo[3,4-b]pyridin-6-yl]-4-methyl-phenyl}-3-trifluoromethyl-benzamide] | complete block of tumour growth; also recorded: blocks tumorous growth | 1.01 | 0.14 | 99.86 |  |  |  |  |  |  |  |
|  | 1130 |  | 1280 |  | 4240 | 7920 | 3.9 | Cc1ccc(NC(=O)c2cccc(C(F)(F)F)c2)cc1-c1cc(C)c2c(N)n[nH]c2n1 [Compound A, N-(3-(3-amino-4-methyl-1H-pyrazolo[3,4-b]pyridin-6-yl)-4-methylphenyl)-3-(trifluoromethyl)benzamide] |  | 3.40 | 54.89 | 45.11 | 3.09 | 47.80 | 52.20 | 4.74 | 85.40 | 14.60 | shows a plateau of its anti-tumour effect and is not able to achieve the same effect on inhibition of tumour growth |
